Measured values as given in EP4656642A1, “ESTROGEN RECEPTOR PROTEOLYSIS TARGETING CHIMERA COMPOUND AND USE THEREOF” (GAN & LEE PHARM CO., LTD, priority 2023, dated 2024).

Legend:
LNCAP FGC cells = test: Inhibition of LNCAP cell proliferation (WST-8, 96 hours); type: cell-based; details: LNCAP FGC cells, 96 hours, WST-8
Method: Test Example 8 Inhibitory activity of the compounds disclosed in the present disclosure on LNCAP cell proliferation
LNCAP FGC cells (ATCC, CLR-1740) were cultured in RPMI 1640 (ATCC, 30-2001) complete medium containing 10% fetal bovine serum (Hyclone, SH30406.05). On the first day of the experiment, LNCaP FGC cells were inoculated in 96-well plates at a density of 5,000 cells/well using RPMI 1640 medium containing 10% fetal bovine serum, with 100µL of cell suspension per well, and placed in a cell culture incubator with 5% CO2 at 37°C overnight. […] The compound concentrations were prepared in complete […] medium and serially diluted 5-fold starting from 10 µM, resulting in a total of nine concentration points. Wells receiving 100 µL of RPMI 1640 medium containing 10% FBS only were used as controls. The plates were incubated at 37°C in a 5% CO2 incubator for 96 hours.

AR protein = molecular target: T1, AR protein (Homo sapiens, UniProt P10275); type: cell-based; details: 8 h
T1 construct: host or cells: VCaP
T1 sequence (P10275 1-920): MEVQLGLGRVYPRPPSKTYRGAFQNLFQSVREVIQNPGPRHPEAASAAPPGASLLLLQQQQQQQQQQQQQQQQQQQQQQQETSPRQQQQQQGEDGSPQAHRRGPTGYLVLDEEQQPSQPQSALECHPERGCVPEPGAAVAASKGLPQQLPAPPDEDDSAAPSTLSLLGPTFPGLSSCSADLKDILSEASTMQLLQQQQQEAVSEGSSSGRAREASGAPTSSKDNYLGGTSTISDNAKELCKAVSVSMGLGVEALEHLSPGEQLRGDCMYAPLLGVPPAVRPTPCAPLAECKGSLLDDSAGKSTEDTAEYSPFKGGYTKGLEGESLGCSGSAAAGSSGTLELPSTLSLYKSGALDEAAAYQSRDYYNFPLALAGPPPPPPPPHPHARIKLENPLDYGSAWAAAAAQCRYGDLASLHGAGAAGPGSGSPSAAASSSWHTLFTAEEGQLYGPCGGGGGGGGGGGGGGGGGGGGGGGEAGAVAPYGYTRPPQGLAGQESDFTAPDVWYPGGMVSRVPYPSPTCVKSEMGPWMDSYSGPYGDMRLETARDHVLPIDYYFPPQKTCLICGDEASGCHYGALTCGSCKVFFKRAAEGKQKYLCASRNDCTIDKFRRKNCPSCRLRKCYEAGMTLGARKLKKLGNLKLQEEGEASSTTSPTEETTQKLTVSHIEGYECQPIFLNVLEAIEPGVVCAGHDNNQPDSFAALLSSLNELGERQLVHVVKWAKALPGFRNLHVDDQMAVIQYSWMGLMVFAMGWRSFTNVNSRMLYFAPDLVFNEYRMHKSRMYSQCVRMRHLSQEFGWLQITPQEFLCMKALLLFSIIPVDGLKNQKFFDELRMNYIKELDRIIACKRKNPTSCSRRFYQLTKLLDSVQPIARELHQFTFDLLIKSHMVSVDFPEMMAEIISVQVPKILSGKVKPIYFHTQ
Method: Test Example 9 Degradation activity of the compounds disclosed in the present disclosure against AR protein in VCAP cells (cell source: ATCC)
AR-positive human prostate cancer cells, VCaP, were inoculated in six-well microplates (Thermo Catalog No. 140675) in DMEM (GiBco Catalog No. 11995-065) containing 10% FBS (Hyclone Catalog No. SH30406.05) at a density of 3 × 10^5 cells/well. […] After 8 h, the culture medium was discarded, and cells were washed with PBS, then RIPA lysis buffer containing 1% Protease Inhibitor Cocktail was added, and the total protein extract was obtained after lysis and centrifugation, and the protein concentration in the extract was detected by BCA method. Protein electrophoresis was carried out by SDS-PAGE, after which the protein was transferred to PVDF (Millipore Sigma catalog number PSRP010R5) membrane by 100V constant-voltage electrotransfer for 60 min, and the PVDF membrane was placed in 1×TBST solution with 5% milk and blocked at room temperature for 1 h. The primary antibody solution (Anti-Androgen receptor, Cell Signaling Technology Catalog No. 5153S; 1: 2000 dilution) was prepared and incubated overnight at 4°C. The primary antibody solution was discarded, and the PVDF membrane was washed three times with 1× TBST for 5 min each. The secondary antibody solution (Thermo catalog number SA5-35571; 1:7500 dilution) was prepared, and the secondary antibody dilution was incubated at room temperature for 1h. The secondary antibody solution was discarded, and the PVDF membrane was washed three times with 1×TBST for 5 min each. Western membrane imaging was performed using a dual-color infrared laser imaging system (Licor catalog number Odyssey CLX). Bands were analyzed in grayscale using the software Image Studio. For each sample, GAPDH protein bands were detected as internal reference. The degradation rates of the AR protein for the compounds and positive control sample were calculated based on the grayscale of the protein bands.

| SMILES | IC50 (LNCAP FGC cells) [µM] | Degradation rates of the AR protein in VCAP cells, 0.5 nM (AR protein) [%] | Degradation rates of the AR protein in VCAP cells, 5 nM (AR protein) [%] |
| --- | --- | --- | --- |
| COc1cc(O[C@H]2CC[C@H](NC(=O)c3ccc(N4CCC(C)(CN5CCC6(CC5)COc5c6ccc6c5C(=O)N(C5CCC(=O)NC5=O)C6)CC4)nn3)CC2)ccc1C#N (relative stereo) [2-261] | 49.1 | 44 | 82 |
| CC1(CN2CCC3(CC2)COc2c3ccc3c2C(=O)N(C2CCC(=O)NC2=O)C3)CCN(c2ccc(C(=O)N[C@H]3CC[C@H](Oc4ccc(C#N)c(Cl)c4)CC3)nn2)CC1 (relative stereo) [2-262] | 21.3 | 34 | 75 |
| COC1(CN2CCC3(CC2)COc2c3ccc3c2C(=O)N(C2CCC(=O)NC2=O)C3)CCN(c2ccc(C(=O)N[C@H]3CC[C@H](Oc4ccc(C#N)c(Cl)c4)CC3)nn2)CC1 (relative stereo) [2-263] | 6.29 | 65 | 88 |
| COc1cc(O[C@H]2C(C)(C)[C@H](NC(=O)c3ccc(N4CCC(C)(CN5CCC6(CC5)COc5c6ccc6c5C(=O)N(C5CCC(=O)NC5=O)C6)CC4)cc3)C2(C)C)ccc1C#N (relative stereo) [2-292] | 68.5 | 30 | 72 |
| COc1cc(O[C@H]2C(C)(C)[C@H](NC(=O)c3ccc(N4CCC(CN5CCC6(CC5)COc5c6ccc6c5C(=O)N(C5CCC(=O)NC5=O)C6)(OC)CC4)cc3)C2(C)C)ccc1C#N (relative stereo) [2-293] | 88.1 | 72 | 89 |
| N#Cc1ccc(O[C@H]2CC[C@H](NC(=O)c3ccc(N4CCC(F)(CN5CCC6(CC5)COc5c6ccc6c5C(=O)N(C5CCC(=O)NC5=O)C6)CC4)nn3)CC2)cc1Cl (relative stereo) [2-315] | 2.45 | 31 | 71 |
| COc1cc(O[C@H]2CC[C@H](NC(=O)c3ccc(N4CCC(F)(CN5CCC6(CC5)COc5c6ccc6c5C(=O)N(C5CCC(=O)NC5=O)C6)CC4)nn3)CC2)ccc1C#N (relative stereo) [2-316] | 68.2 | 35 | 61 |
| COc1cc(O[C@H]2C(C)(C)[C@H](NC(=O)c3ccc(N4CCC(CN5CCC6(CC5)COc5c6ccc6c5C(=O)N(C5CCC(=O)NC5=O)C6)CC4)cc3)C2(C)C)ccc1C#N (relative stereo) [2-318] | 9.85 | 55 | 78 |
| C[C@H]1CC2(CCN(c3ccc(N4CCC(CN5CCC6(CC5)COc5c6ccc6c5C(=O)N(C5CCC(=O)NC5=O)C6)CC4)cc3)CC2)CN1c1ccc(C#N)c(Cl)c1 (stereo partly drawn) [2-103] | 0.85 | 0 | 47 |
